Results reported in ChEMBL document CHEMBL6134898, “In Vitro ADME Profiling of PROTACs: Successes, Challenges, and Lessons Learned from Analysis of Clinical PROTACs from a Diverse Physicochemical Space” (J Med Chem, 2025).
In brackets after ≈: the same amount, converted by molar mass.

Experiments:
[1] = Intrinsic clearance in human hepatocytes measured per million cells at 1 uM measured for 0.5 to 120 mins by LC-MS/MS analysis; type: ADME, cell-based, Hepatocyte; details: time 0.5-120 min, read-out: CLH
[2] = Intrinsic clearance in mouse hepatocytes measured per million cells at 1 uM measured for 0.5 to 120 mins by LC-MS/MS analysis; type: ADME, cell-based, Hepatocyte; details: time 0.5-120 min, read-out: CLH
[3] = Protein binding in human plasma assessed as compound recovery at 5 uM incubated for 18 hrs by LC-MS/MS analysis; type: ADME, cell-free; details: read-out: Drug recovery
[4] = Protein binding in rat hepatocytes assessed as free fraction at 5 uM incubated for 18 hrs by LC-MS/MS analysis; type: ADME, cell-based, Hepatocyte
[5] = Intrinsic clearance in monkey hepatocytes measured per million cells at 1 uM measured for 0.5 to 120 mins by LC-MS/MS analysis; type: ADME, cell-based, Macaca mulatta, Hepatocyte; details: rhesus monkey, time 0.5-120 min, read-out: CLH
[6] = Stability in human plasma at 5 uM incubated for 18 hrs by LC-MS/MS analysis; type: ADME, cell-free; details: read-out: Stability
[7] = Apparent permeability across apical to basal side in human Caco-2 cells at 1 uM incubated for 120 mins followed by ACN addition by LC-MS/MS analysis; type: ADME, cell-based
[8] = Protein binding in mouse plasma assessed as free fraction at 5 uM incubated for 18 hrs by LC-MS/MS analysis; type: ADME, cell-free
[9] = Intrinsic clearance in dog hepatocytes measured per million cells at 1 uM measured for 0.5 to 120 mins by LC-MS/MS analysis; type: ADME, cell-based, Canis lupus familiaris, Hepatocyte; details: time 0.5-120 min, read-out: CLH
[10] = Intrinsic clearance in rat hepatocytes measured per million cells at 1 uM measured for 0.5 to 120 mins by LC-MS/MS analysis; type: ADME, cell-based, Hepatocyte; details: time 0.5-120 min, read-out: CLH
[11] = Blood to plasma partitioning ratio in human at 10 uM incubated for 30 mins by LC-MS/MS analysis; type: ADME, cell-free; details: whole blood
[12] = Blood to plasma partitioning ratio in dog at 10 uM incubated for 30 mins by LC-MS/MS analysis; type: ADME, cell-free, Canis lupus familiaris; details: whole blood
[13] = Protein binding in dog plasma assessed as free fraction at 5 uM incubated for 18 hrs by LC-MS/MS analysis; type: ADME, cell-free, Canis lupus familiaris
[14] = Blood to plasma partitioning ratio in rat at 10 uM incubated for 30 mins by LC-MS/MS analysis; type: ADME, cell-free; details: whole blood
[15] = Lipophilicity, LogD of compound by Chromatography; type: physicochemical
[16] = Protein binding in rat plasma assessed as free fraction at 5 uM incubated for 18 hrs by LC-MS/MS analysis; type: ADME, cell-free
[17] = Protein binding in monkey plasma assessed as free fraction at 5 uM incubated for 18 hrs by LC-MS/MS analysis; type: ADME, cell-free, Macaca mulatta; details: rhesus monkey
[18] = Protein binding in human plasma assessed as free fraction at 5 uM incubated for 18 hrs by LC-MS/MS analysis; type: ADME, cell-free
[19] = Apparent permeability across apical to basal side in human Caco-2 cells at 1 uM incubated for 120 mins by LC-MS/MS analysis; type: ADME, cell-based
[20] = Solubility of compound in SGF at pH 1.2 measured after 24 hrs by UPLC analysis; type: physicochemical
[21] = Solubility of compound in FaSSIF at pH 6.5 measured after 24 hrs by UPLC analysis; type: physicochemical
[22] = Solubility of compound in FeSSIF at pH 5 measured after 24 hrs by UPLC analysis; type: physicochemical

Compound	hepatocyte CLint at 1 µM [1] [µL/min/1e6 cells]	hepatocyte CLint at 1 µM [2] [µL/min/1e6 cells]	recovery at 18 h, 5 µM [3] [%]	fraction unbound at 18 h, 5 µM [4]	hepatocyte CLint at 1 µM [5] [µL/min/1e6 cells]	remaining at 18 h, 5 µM [6] [%]	Papp A→B at 2 h, 1 µM [7] [×10⁻⁶ cm/s]	fraction unbound at 18 h, 5 µM [8]	hepatocyte CLint at 1 µM [9] [µL/min/1e6 cells]	hepatocyte CLint at 1 µM [10] [µL/min/1e6 cells]	blood plasma ratio at 0.5 h, 10 µM [11]	blood plasma ratio at 0.5 h, 10 µM [12]	fraction unbound at 18 h, 5 µM [13]	blood plasma ratio at 0.5 h, 10 µM [14]	chromatographic logD [15]	fraction unbound at 18 h, 5 µM [16]	fraction unbound at 18 h, 5 µM [17]	fraction unbound at 18 h, 5 µM [18]	Papp A→B at 2 h, 1 µM [19] [×10⁻⁶ cm/s]	solubility at 24 h [20] [µg/mL]	also measured
COc1cc(-c2cn(C)c(=O)c3cnc(N4CCC4)cc23)cc(OC)c1CN1CCC(CN2CCC3(CC2)CN(c2ccc4c(c2)C(=O)N([C@H]2CCC(=O)NC2=O)C4)C3)CC1	< 1	5	65	0.35	3	84	0.1	0.232	5	< 1	2.7	2.4	0.41	1.3	1.9	0.265	0.427	0.29	< 0.1	–	–
NC(=O)c1ncc(N2CCCCC2)nc1Nc1ccc(C2CCN(C[C@@H]3CCN(c4ccc5c(c4)C(=O)N(C4CCC(=O)NC4=O)C5=O)C3)CC2)cc1 (stereo partly drawn)	< 1	8	90	0.003	6	78	< 0.1	< 0.001	4	5	0.8	0.5	< 0.001	0.6	5.1	0.001	< 0.002	< 0.004	< 0.1	–	–
Cn1c(=O)n([C@H]2CCC(=O)NC2=O)c2cccc(C#CCOC3CCN(C[C@H]4CC[C@H](n5cc(NC(=O)c6cnn7ccc(N8C[C@H]9C[C@@H]8CO9)nc67)c(C(F)F)n5)CC4)CC3)c21	3	11	56	0.069	10	68	5.3	0.008	4	11	–	–	0.026	–	2.4	–	0.035	0.022	2.4	4.1 (≈ 4.73 µM)	solubility at 24 h [21]: 1.6 µg/mL (≈ 1.85 µM); solubility at 24 h [22]: 33 µg/mL (≈ 38.1 µM)
CNC(=O)COc1cc2cc(Nc3nc(N4CCC(O[C@H]5C[C@H](N6CCC(c7ccc8c(c7F)CN(C7CCC(=O)NC7=O)C8=O)CC6)C5)CC4)ncc3Cl)ccc2n(C(C)C)c1=O (stereo partly drawn)	3	5	43	0.016	10	7	1.2	0.005	8	5	0.8	0.7	0.002	1.1	3.7	0.014	0.007	< 0.007	< 0.3	–	–
N#Cc1ccc(O[C@H]2CC[C@H](NC(=O)c3ccc(N4CCC(CN5CCN(c6cc7c(cc6F)C(=O)N([C@H]6CCC(=O)NC6=O)C7=O)CC5)CC4)nn3)CC2)cc1Cl	2	3	14	0.008	5	1	0.1	< 0.001	< 1	< 1	0.7	0.6	–	0.7	5.1	–	–	< 0.001	< 0.1	230 (≈ 283 µM)	solubility at 24 h [21]: 1.6 µg/mL (≈ 1.97 µM); solubility at 24 h [22]: 192 µg/mL (≈ 236 µM)
CCc1cc(N2C(=S)N(c3ccc(C#N)c(C(F)(F)F)c3)C(=O)C2(C)C)ccc1OCCN1CCN(CC(=O)Nc2cccc(NC3CCC(=O)NC3=O)c2)[C@H](C)C1 (stereo partly drawn)	3	10	82	< 0.001	5	72	1.2	–	≤ 1	11	0.6	0.6	< 0.001	0.7	5.2	0.003	0.003	< 0.001	< 0.3	16 (≈ 19.5 µM)	solubility at 24 h [21]: 0.3 µg/mL (≈ 0.366 µM); solubility at 24 h [22]: 293 µg/mL (≈ 358 µM)
Cc1ncsc1-c1ccc([C@H](C)NC(=O)[C@@H]2C[C@@H](O)CN2C(=O)[C@@H](NC(=O)CCCCCC(=O)N2CCN(CC[C@H](CSc3ccccc3)Nc3ccc(S(=O)(=O)NC(=O)c4ccc(N5CCN(CC6=C(c7ccc(Cl)cc7)CCC(C)(C)C6)CC5)cc4)cc3S(=O)(=O)C(F)(F)F)CC2)C(C)(C)C)cc1 [DT-2216]	3	< 1	91	< 0.001	≤ 1	92	–	–	< 1	3	0.9	0.8	–	0.7	7.3	–	–	< 0.003	–	–	–
COc1cc(O[C@H]2C(C)(C)[C@H](NC(=O)c3ccc(N4CCC(CN5CCN(c6ccc(C(=O)N[C@H]7CCC(=O)NC7=O)c(F)c6)CC5)CC4)cc3)C2(C)C)ccc1C#N [LUXDEGALUTAMIDE]	< 1	4	68	0.01	4	74	0.3	0.002	< 1	2	0.5	0.8	0.003	0.7	5.3	0.003	–	< 0.004	< 0.1	188 (≈ 233 µM)	solubility at 24 h [21]: 0.4 µg/mL (≈ 0.495 µM); solubility at 24 h [22]: 3.8 µg/mL (≈ 4.7 µM)
CN1CCN([C@@H]2CCCN(c3cnc(C(N)=O)c(Nc4ccc(C5CCN(CC6CCN(c7ccc(C(=O)N[C@H]8CCC(=O)NC8=O)nc7)CC6)CC5)cc4)n3)C2)C1=O [NX-5948]	5	4	40	0.178	16	43	8.7	0.024	3	3	1	2.6	0.067	1.1	2.2	0.073	0.094	0.024	2.8	559 (≈ 693 µM)	solubility at 24 h [21]: 2.5 µg/mL (≈ 3.1 µM); solubility at 24 h [22]: 51 µg/mL (≈ 63.2 µM)
O=C1CC[C@H](N2Cc3cc(N4CCN(CC5CCN(c6ccc([C@@H]7c8ccc(O)cc8CC[C@@H]7c7ccccc7)cc6)CC5)CC4)ccc3C2=O)C(=O)N1 [VEPDEGESTRANT]	3	23	77	< 0.001	5	77	< 0.1	< 0.001	3	9	0.7	0.5	< 0.001	0.6	5.7	< 0.001	< 0.002	< 0.003	< 0.1	230 (≈ 318 µM)	solubility at 24 h [21]: 2.6 µg/mL (≈ 3.59 µM); solubility at 24 h [22]: 274 µg/mL (≈ 378 µM)
